From patent US20230151025A1, “SUBSTITUTED THIAZOLOPYRIDINES, SALTS THEREOF AND THEIR USE AS HERBICIDALLY ACTIVE SUBSTANCES” (Bayer Aktiengesellschaft, priority 2020, published 2023)

Key:
Format in all cases: in vivo
[1] = tested on: Alopecurus myosuroides (ALOMY); test: Herbicidal pre-emergence action (A), 1280 g/ha; settings: visual grading after ca. 3 weeks vs untreated controls, 100% = plants have died off, 0% = as control plants
In short: (§1)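 Pre-emergence greenhouse test: seeds sown in sandy loam pots, WP or EC formulations sprayed onto covering soil as aqueous suspension/emulsion with 0.5% additive at 600 l water/ha. Damage graded visually after ca. 3 weeks versus untreated controls, 0% = as control, 100% = plants dead.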

[2] = tested on: Amaranthus retroflexus (AMARE); test: Herbicidal pre-emergence action (A), 1280 g/ha; settings: visual grading after ca. 3 weeks vs untreated controls
In short: as §1

[3] = tested on: Digitaria sanguinalis (DIGSA); test: Herbicidal pre-emergence action (A), 1280 g/ha; settings: visual grading after ca. 3 weeks vs untreated controls, 100% = plants have died off, 0% = as control plants
In short: as §1

[4] = tested on: Echinochloa crus-galli (ECHCG); test: Herbicidal pre-emergence action (A), 1280 g/ha; settings: visual grading after ca. 3 weeks vs untreated controls, 100% = plants have died off, 0% = as control plants
In short: as §1

[5] = tested on: Kochia scoparia (KCHSC; Bassia scoparia); test: Herbicidal pre-emergence action (A), 1280 g/ha; settings: visual grading after ca. 3 weeks vs untreated controls
In short: as §1

[6] = tested on: Lolium rigidum (LOLRI); test: Herbicidal pre-emergence action (A), 1280 g/ha; settings: visual grading after ca. 3 weeks vs untreated controls, 100% = plants have died off, 0% = as control plants
In short: as §1

[7] = tested on: Matricaria inodora (MATIN); test: Herbicidal pre-emergence action (A), 1280 g/ha; settings: visual grading after ca. 3 weeks vs untreated controls
In short: as §1

[8] = tested on: Poa annua (POAAN); test: Herbicidal pre-emergence action (A), 1280 g/ha; settings: visual grading after ca. 3 weeks vs untreated controls, 100% = plants have died off, 0% = as control plants
In short: as §1

[9] = tested on: Setaria viridis (SETVI); test: Herbicidal pre-emergence action (A), 1280 g/ha; settings: visual grading after ca. 3 weeks vs untreated controls
In short: as §1

[10] = tested on: Stellaria media (STEME); test: Herbicidal pre-emergence action (A), 1280 g/ha; settings: visual grading after ca. 3 weeks vs untreated controls
In short: as §1

[11] = tested on: Veronica persica (VERPE); test: Herbicidal pre-emergence action (A), 1280 g/ha; settings: visual grading after ca. 3 weeks vs untreated controls
In short: as §1

[12] = tested on: Abutilon theophrasti (ABUTH); test: Herbicidal post-emergence action (B), 1280 g/ha; settings: rated visually after about 3 weeks vs untreated controls
In short: (§2)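 Post-emergence greenhouse test: weeds in sandy loam treated at the one-leaf stage, 2 to 3 weeks after sowing, with WP or EC formulations plus 0.5% additive at 600 l/ha water. Visual activity versus untreated controls after about 3 weeks (100% = dead, 0% = like control).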

[13] = tested on: Alopecurus myosuroides (ALOMY); test: Herbicidal post-emergence action (B), 1280 g/ha; settings: rated visually after about 3 weeks vs untreated controls
In short: as §2

[14] = tested on: Amaranthus retroflexus (AMARE); test: Herbicidal post-emergence action (B), 1280 g/ha; settings: rated visually after about 3 weeks vs untreated controls
In short: as §2

[15] = tested on: Digitaria sanguinalis (DIGSA); test: Herbicidal post-emergence action (B), 1280 g/ha; settings: rated visually after about 3 weeks vs untreated controls
In short: as §2

[16] = tested on: Echinochloa crus-galli (ECHCG); test: Herbicidal post-emergence action (B), 1280 g/ha; settings: rated visually after about 3 weeks vs untreated controls
In short: as §2

[17] = tested on: Kochia scoparia (KCHSC; Bassia scoparia); test: Herbicidal post-emergence action (B), 1280 g/ha
In short: as §2

[18] = tested on: Matricaria inodora (MATIN); test: Herbicidal post-emergence action (B), 1280 g/ha; settings: rated visually after about 3 weeks vs untreated controls
In short: as §2

[19] = tested on: Poa annua (POAAN); test: Herbicidal post-emergence action (B), 1280 g/ha; settings: rated visually after about 3 weeks vs untreated controls
In short: as §2

[20] = tested on: Setaria viridis (SETVI); test: Herbicidal post-emergence action (B), 1280 g/ha; settings: rated visually after about 3 weeks vs untreated controls
In short: as §2

[21] = tested on: Stellaria media (STEME); test: Herbicidal post-emergence action (B), 1280 g/ha
In short: as §2

[22] = tested on: Veronica persica (VERPE); test: Herbicidal post-emergence action (B), 1280 g/ha
In short: as §2

[23] = tested on: Alopecurus myosuroides (ALOMY); test: Herbicidal pre-emergence action (C), 320 g/ha; settings: ca. 3 weeks
In short: (§3)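 Seeds sown in sandy loam; WP or EC formulations sprayed on covering soil pre-emergence at 320 g/ha in 600 l water/ha with 0.5% additive. Greenhouse culture; damage scored visually after ca. 3 weeks versus untreated controls (0% = as control, 100% = plants dead).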

[24] = tested on: Amaranthus retroflexus (AMARE); test: Herbicidal pre-emergence action (C), 320 g/ha; settings: ca. 3 weeks
In short: as §3

[25] = tested on: Echinochloa crus-galli (ECHCG); test: Herbicidal pre-emergence action (C), 320 g/ha; settings: ca. 3 weeks
In short: as §3

[26] = tested on: Lolium rigidum (LOLRI); test: Herbicidal pre-emergence action (C), 320 g/ha; settings: ca. 3 weeks
In short: as §3

[27] = tested on: Setaria viridis (SETVI); test: Herbicidal pre-emergence action (C), 320 g/ha; settings: ca. 3 weeks
In short: as §3

[28] = tested on: Digitaria sanguinalis (DIGSA); test: Herbicidal pre-emergence action (C), 320 g/ha; settings: ca. 3 weeks
Description: (§4) Seeds of mono- and dicotyledonous weed plants and crop plants were sown, in plastic or organic planting pots, in sandy loam and covered with soil. The compounds according to the invention, formulated in the form of wettable powders (WP) or as emulsifiable concentrates (EC), were applied to the surface of the covering soil as aqueous suspension or emulsion, with the addition of 0.5% of an additive, at an application rate of 600 l of water/ha (converted).
(§5) Following treatment, the pots were placed in a greenhouse and kept under optimum growth conditions for the test plants. The visual grading of the damage to the test plants was carried out after ca. 3 weeks in comparison to untreated controls (herbicidal effect in percent (%): 100% effect=plants have died off, 0% effect=as control plants).
(§6) Tables C1 to C13 below show the effects of selected compounds of the general formula (I) according to table 1 on various harmful plants and an application rate corresponding to 320 g/ha obtained by the experimental procedure mentioned above.

[29] = tested on: Abutilon theophrasti (ABUTH); test: Herbicidal post-emergence action (D), 320 g/ha; settings: ca. 3 weeks
In short: (§7)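 Post-emergence greenhouse spray of WP or EC formulations plus 0.5% additive at 600 l water/ha onto single-leaf-stage plants, 2–3 weeks after sowing in sandy loam. About 3 weeks later, effect was rated visually against untreated controls as % herbicidal effect, where 0% means like control and 100% means plants dead.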

[30] = tested on: Alopecurus myosuroides (ALOMY); test: Herbicidal post-emergence action (D), 320 g/ha; settings: ca. 3 weeks
In short: as §7

[31] = tested on: Amaranthus retroflexus (AMARE); test: Herbicidal post-emergence action (D), 320 g/ha; settings: ca. 3 weeks
In short: as §7

[32] = tested on: Echinochloa crus-galli (ECHCG); test: Herbicidal post-emergence action (D), 320 g/ha; settings: ca. 3 weeks
In short: as §7

[33] = tested on: Matricaria inodora (MATIN); test: Herbicidal pre-emergence action (C), 320 g/ha; settings: ca. 3 weeks
In short: as §3

[34] = tested on: Veronica persica (VERPE); test: Herbicidal pre-emergence action (C), 320 g/ha; settings: ca. 3 weeks
In short: as §3

[35] = tested on: Viola tricolor (VIOTR); test: Herbicidal pre-emergence action (C), 320 g/ha; settings: ca. 3 weeks
In short: as §3

[36] = tested on: Polygonum convolvulus (POLCO); test: Herbicidal post-emergence action (D), 320 g/ha; settings: ca. 3 weeks
In short: as §7

[37] = tested on: Setaria viridis (SETVI); test: Herbicidal post-emergence action (D), 320 g/ha; settings: ca. 3 weeks
In short: as §7

[38] = tested on: Veronica persica (VERPE); test: Herbicidal post-emergence action (D), 320 g/ha; settings: ca. 3 weeks
In short: as §7

[39] = tested on: Abutilon theophrasti (ABUTH); test: Herbicidal pre-emergence action (C), 320 g/ha; settings: ca. 3 weeks
In short: as §3

[40] = tested on: Polygonum convolvulus (POLCO); test: Herbicidal pre-emergence action (C), 320 g/ha; settings: ca. 3 weeks
In short: as §3

[41] = tested on: Avena fatua; test: Herbicidal pre-emergence action (C), 320 g/ha; settings: ca. 3 weeks
Description: as §4, §5, §6

SMILES | ALOMY, herbicidal effect in percent (%) [1] | herbicidal effect AMARE [2] | herbicidal effect MATIN [7] | POAAN, herbicidal effect in percent (%) [8] | herbicidal effect SETVI [9] | herbicidal effect STEME [10] | herbicidal activity AMARE [14] | herbicidal activity ECHCG [16] | herbicidal effect KCHSC [17] | herbicidal activity POAAN [19] | herbicidal effect STEME [21] | herbicidal effect VERPE [22] | herbicidal effect ALOMY [23] | herbicidal effect AMARE [24] | herbicidal effect ECHCG [25] | herbicidal effect LOLRI [26] | herbicidal effect SETVI [27] | herbicidal effect ALOMY [30] | herbicidal effect AMARE [31] | herbicidal effect ECHCG [32] | other results
c1ccc(-c2ccc3scnc3n2)cc1 [Example I-010] | 100% | 90% | 100% | 100% | 100% | 100% | 100% | 90% | 100% | 100% | 100% | 100% | 100% | 90% | 100% | 100% | 100% | 90% | 80% | 90% | DIGSA, herbicidal effect in percent (%) [3]: 100%; ECHCG, herbicidal effect in percent (%) [4]: 100%; herbicidal effect KCHSC [5]: 90%; LOLRI, herbicidal effect in percent (%) [6]: 100%; herbicidal effect VERPE [11]: 90%; herbicidal activity ABUTH [12]: 100%; herbicidal activity ALOMY [13]: 100%; herbicidal activity DIGSA [15]: 100%; herbicidal activity MATIN [18]: 100%; herbicidal activity SETVI [20]: 100%; herbicidal effect DIGSA [28]: 100%; herbicidal effect ABUTH [29]: 80%
CC(C)c1cc2scnc2nc1-c1ccccc1F [Example I-184] | 90% | 90% | 90% | 100% | 100% | 90% | 100% | 90% | 90% | 90% | 90% | 90% | 100% | 90% | 100% | 100% | 100% | 90% | 80% | 80% | ECHCG, herbicidal effect in percent (%) [4]: 100%; herbicidal effect KCHSC [5]: 90%; LOLRI, herbicidal effect in percent (%) [6]: 100%; herbicidal effect VERPE [11]: 90%; herbicidal effect MATIN [33]: 80%; herbicidal effect VERPE [34]: 80%; herbicidal effect VIOTR [35]: 80%; herbicidal effect POLCO [36]: 80%; herbicidal effect SETVI [37]: 90%; herbicidal effect VERPE [38]: 90%
CCc1cc2sc(OC)nc2nc1-c1ccccc1C [Example I-094] | – | 100% | 100% | 100% | 100% | 100% | 100% | 100% | 100% | 100% | 100% | 100% | – | – | 80% | – | – | – | – | – | DIGSA, herbicidal effect in percent (%) [3]: 100%; herbicidal activity ABUTH [12]: 100%; herbicidal activity ALOMY [13]: 100%; herbicidal activity DIGSA [15]: 100%; herbicidal activity MATIN [18]: 100%; herbicidal activity SETVI [20]: 100%; herbicidal effect ABUTH [29]: 80%; herbicidal effect VERPE [38]: 90%
Cc1cscc1-c1nc2ncsc2cc1C [Example I-193] | 90% | 90% | 90% | 100% | 100% | 100% | 100% | 100% | 90% | 100% | 90% | 90% | 100% | 90% | 100% | 100% | 100% | 90% | 80% | 80% | ECHCG, herbicidal effect in percent (%) [4]: 100%; herbicidal effect KCHSC [5]: 90%; LOLRI, herbicidal effect in percent (%) [6]: 100%; herbicidal effect VERPE [11]: 90%; herbicidal activity ABUTH [12]: 90%; herbicidal effect ABUTH [39]: 80%; herbicidal effect MATIN [33]: 80%; herbicidal effect POLCO [40]: 80%; herbicidal effect VERPE [34]: 80%; herbicidal effect AVEFA [41]: 80%; herbicidal effect SETVI [37]: 80%
Fc1ccccc1-c1nc2ncsc2cc1Br [Example I-012] | – | – | – | – | – | – | – | – | – | – | – | – | 100% | 90% | 100% | 100% | 100% | 90% | 90% | 80% | herbicidal effect ABUTH [39]: 80%; herbicidal effect MATIN [33]: 90%; herbicidal effect POLCO [40]: 80%; herbicidal effect VERPE [34]: 80%; herbicidal effect AVEFA [41]: 100%; herbicidal effect POLCO [36]: 90%; herbicidal effect SETVI [37]: 90%
